In PubChem BioAssay (NCI):
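96-well plates; 48 h exposure; 5 concentrations. Endpoints by linear interpolation between flanking doses. Not reached: highest tested concentration assigned. Abbreviation: GI50, concentration required for 50% inhibition of growth. TGI: concentration producing complete growth inhibition.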

Legend:
Assay in all cases: NCI tumour cell line growth inhibition, 48 h
[1] = tested on: KM12 colon
[2] = tested on: MDA-N
[3] = tested on: EKVX NSCLC
[4] = tested on: SNB-19 CNS
[5] = tested on: SF-295 CNS
[6] = tested on: NCI/ADR-RES ovarian
[7] = tested on: ACHN renal
[8] = tested on: T-47D breast
[9] = tested on: DMS 273 small cell lung
[10] = tested on: DLD-1 colon
[11] = tested on: SR leukemia
[12] = tested on: SNB-78 CNS
[13] = tested on: DMS 114 small cell lung

SMILES | TGI [1] [µM] | TGI [2] [µM] | TGI [3] [µM] | TGI [4] [µM] | TGI [5] [µM] | TGI [6] [µM] | TGI [7] [µM] | TGI [8] [µM] | TGI [9] [µM] | TGI [10] [µM] | TGI [11] [µM] | TGI [12] [µM] | TGI [13] [µM] | GI50 [1] [µM] | GI50 [3] [µM] | GI50 [4] [µM] | GI50 [5] [µM] | GI50 [6] [µM] | GI50 [7] [µM] | GI50 [8] [µM]
Cc1ncc(CO)c(CN)c1O | > 100 | > 100 | > 100 | > 100 | > 100 | > 100 | > 100 | > 100 |  |  |  |  |  |  |  |  |  |  |  | 
CN(C)CCNC(=O)c1cccc2nc3c4ccccc4c4ccccc4c3nc12 | 3.06 | 3.06 | 11 | 8.6 | 10.1 |  | 12.4 | 34.1 | > 100 | 2.9 | 13 | 37.6 |  |  |  |  |  |  |  | 
COc1cc2c(cc1OC)C(Cl)C(c1ccc(Cl)cc1)=C2Cl (stereo not given) |  |  | 59.7 | > 100 | 30 |  | 30.1 |  | 41.6 | 37.8 |  | 58.5 | 28.6 |  |  |  |  |  |  | 
CCN(CC)Cc1ccc2cccnc2c1O |  | 49.7 | > 100 | > 100 | 51.2 | 2.1 | > 100 |  |  |  | > 100 |  |  |  |  |  |  |  |  | 
C[C@@H]1CC[C@H]2C(COC/C=C/COCC3=C(C(F)(F)F)O[C@@H]4O[C@@]5(C)CC[C@H]6[C@H](C)CC[C@@H]3[C@@]46OO5)=C(C(F)(F)F)O[C@@H]3O[C@@]4(C)CC[C@@H]1[C@]32OO4 | 0.0328 |  | > 100 | > 100 |  | > 71.3 | 0.753 | > 100 |  |  |  |  |  | < 0.01 | 0.072 | 0.542 | < 0.0244 | 3.14 | 0.0468 | 
O=C(c1cc(Br)ccc1O)c1cc(Br)ccc1O | 30.8 | 29.5 | 30.3 | 32.3 | 33.7 | 44.7 | 29.9 | 29.2 |  |  |  |  |  |  |  |  |  |  |  | 
Cn1cnc([N+](=O)[O-])c1SCC(=O)O | > 100 | > 100 | > 100 | > 100 | > 100 | > 100 | > 100 | > 100 |  |  | > 100 |  |  |  |  |  |  |  |  | 
Oc1cc(O)cc(/C=C/c2ccc(O)c(O)c2)c1 | 11.2 |  | > 100 | > 88.4 | 60 | 51 |  |  | 38.9 | > 31.6 |  | 76.5 | 22.1 |  |  |  |  |  |  | 
NCS(=O)(=O)O | > 100 | > 100 | > 100 | > 100 | > 100 | > 100 | > 100 | > 100 |  |  |  |  |  |  |  |  |  |  |  | 
COc1cc2ccc1-c1cc(ccc1O)CC1c3cc4c(cc3CCN1C)Oc1c(OC)cc3c(c1O4)C(C2)N(C)CC3 (stereo not given) | 3.32 |  | 4.57 | 4.28 | 3.33 |  | 3.74 |  | 3.27 | 5.27 | 4 | 5.23 | 3.48 |  |  |  |  |  |  | 
O=C(CC1(O)C(=O)Nc2ccc(Br)cc21)c1ccc(C(=O)NCC2CCC3(CC2)OOC2(CCCCC2)OO3)cc1 (stereo not given) | 31.2 |  |  | 38.7 | 35 | 69.3 | 5.38 | 24.4 |  |  |  |  |  | 3.08 |  | 10.5 | 7.1 | 15.1 | 2.02 | 2.69
COc1cnc2c(c1)C(=O)c1c-2n(CCCN2CCNCC2)c(=O)c2cc(Cl)ccc12 | 2.04 |  |  |  |  |  | 1.27 | 50.3 |  |  |  |  |  | 0.55 |  |  |  |  | 0.181 | 8.98
c1ccc2c[n+](CCCCCCCCCC[n+]3ccc4ccccc4c3)ccc2c1 | > 10 | > 10 | > 10 | > 10 | > 10 | > 10 | > 10 | > 10 |  |  | > 10 |  |  |  |  |  |  |  |  | 
O=C1c2ccccc2C(=O)c2c(NCCNC(=O)C3CCCN3)ccc(NCCNC(=O)C3CCCN3)c21 (stereo not given) | 49.8 | > 100 | > 100 | > 100 | > 100 | > 100 | > 100 | > 100 |  |  | 66.8 |  |  |  |  |  |  |  |  | 
Cc1ccc(C)c(/C(=N\N=C(N)N)C2CC2)c1 | > 100 | 59.8 | > 100 | > 100 | > 100 | > 100 | > 100 | > 100 |  |  | > 100 |  |  |  |  |  |  |  |  | 
CCOC(=O)c1c2c(c(O)c3ccccc3c(O)n(-c3ccc(C)cc3)c1C)C(=O)C=CC2=O | 81.7 |  | 85.5 | > 100 | 37 | 48.7 | 38.4 | 39.4 |  |  |  |  |  |  |  |  |  |  |  | 
O=C(CSCC(=O)N/N=C/c1cccc(OCc2ccccc2)c1)N/N=C/c1cccc(OCc2ccccc2)c1 | > 100 |  | > 100 | > 100 | > 100 | > 100 | > 100 | > 100 |  |  |  |  |  |  |  |  |  |  |  | 
Cc1c2ccnc(-c3ccccc3)c2cc2c1[nH]c1ccccc12 | 26 |  | 12.5 | 17.9 | 5.45 | 6.36 |  |  | 4.06 | 16.1 |  | 30.4 | 4.82 |  |  |  |  |  |  | 
CC(C)CNc1nc(N)[nH]c(=O)c1NC=O | > 100 | > 100 | > 100 | > 100 | > 100 | > 100 | > 100 | > 100 |  |  |  |  |  |  |  |  |  |  |  | 
N=C(N)c1ccc(-c2ccc(-c3ccc(Cl)cn3)s2)cc1 |  |  |  |  |  |  | 2.96 |  |  |  |  |  |  |  |  |  |  |  | 1.61 | 
CN(C)c1ccc2nc3c(C(=O)O)cc(=O)c(O)c-3oc2c1 | > 100 | 55.5 | 81 | 89.8 | > 100 | 85.7 | > 100 | 47.4 |  |  | 50.1 |  |  |  |  |  |  |  |  | 
CN(C)c1ccc(C2CC(=O)C(C#N)=C(c3ccccc3)NN2C)cc1 (stereo not given) | > 100 |  |  | > 100 | > 100 |  | > 100 |  |  | > 100 | > 100 | > 100 | > 100 |  |  |  |  |  |  | 
